Laboratory results from US12209102B2, “Heterocyclic compounds and uses thereof” (Kumquat Biosciences Inc., priority 2022, dated 2025).

Columns and labels:
GP2D cells = test: Ras cellular assay, growth of cells with K-Ras G12D mutation (CellTiter-Glo); type: cell-based; conditions: cell growth, Example 9, G12D mutation, read-out: IC50 against GP2D cells
A549 cells = test: Ras cellular assay, growth of cells with K-Ras G12S mutation (CellTiter-Glo); type: cell-based; conditions: Homo sapiens, cell growth, Example 9, G12S mutation, read-out: IC50 against A549 cells
Method in brief: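 A549 cells (K-Ras G12S) in RPMI-1640 with 10% heat-inactivated FBS, seeded e.g. 800 per well in standard or ultra-low-attachment 384-well plates, treated next day with a dilution series (e.g. 10-point, 3-fold). Viability by CellTiter-Glo luminescence about 6 days later; IC50 from four-parameter fit.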

SW620 cells = test: Ras cellular assay, growth of cells with K-Ras G12V mutation (CellTiter-Glo); type: cell-based; conditions: Homo sapiens, SW-620; cell growth, Example 9, G12V mutation; read-out: IC50 against SW620 cells
Method in brief: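 SW620 (K-Ras G12V) cells, e.g. 800/well in RPMI-1640 with 10% heat-inactivated FBS on standard or ultra-low attachment plates, were dosed the day after plating with e.g. a 10-point 3-fold series. Viability by CellTiter-Glo luminescence about 6 days later; IC50 from four-parameter fit.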

K-Ras G12V = target: T1, K-Ras G12V (Homo sapiens, UniProt P01116, G12V); test: HTRF resonance energy transfer assay, K-Ras G12V / SOS1 interaction; type: biochemical; conditions: HTRF assay of Example 5; read-out: IC50 against K-Ras G12V
T1 construct: made in house; host or cells: E. coli BL21 (DE3)
Method in brief: (§1)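 Read-out: HTRF 665/620 nm ratio (excitation 337 nm) after roughly 10 min or longer incubation, used to derive IC50. Donor anti-GST-Eu on GST-K-Ras; acceptor anti-6His-XL665 on His-hSOS1. Duplicate dose series from 10 μM down to 0.01 μM.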

K-Ras G12D = target: T2, K-Ras G12D (Homo sapiens, UniProt P01116, G12D); test: HTRF resonance energy transfer assay, K-Ras G12D / SOS1 interaction; type: biochemical; conditions: HTRF assay of Example 5; read-out: IC50 against K-Ras G12D
T2 construct: made in house; host or cells: E. coli BL21 (DE3)
Method in brief: as §1

K-Ras WT = target: T3, K-Ras WT (Homo sapiens, UniProt P01116); test: HTRF resonance energy transfer assay, K-Ras WT / SOS1 interaction; type: biochemical; conditions: HTRF assay of Example 5; read-out: IC50 against K-Ras WT
T3 construct: made in house; host or cells: E. coli BL21 (DE3)
Method in brief: as §1

K-Ras G12S = target: T4, K-Ras G12S (Homo sapiens, UniProt P01116, G12S); test: HTRF resonance energy transfer assay, K-Ras G12S / SOS1 interaction; type: biochemical; conditions: HTRF assay of Example 5; read-out: IC50 against K-Ras G12S
T4 construct: made in house; host or cells: E. coli BL21 (DE3)
Method in brief: as §1

T4 sequence (P01116 1-188 isoform P01116-2 G12S): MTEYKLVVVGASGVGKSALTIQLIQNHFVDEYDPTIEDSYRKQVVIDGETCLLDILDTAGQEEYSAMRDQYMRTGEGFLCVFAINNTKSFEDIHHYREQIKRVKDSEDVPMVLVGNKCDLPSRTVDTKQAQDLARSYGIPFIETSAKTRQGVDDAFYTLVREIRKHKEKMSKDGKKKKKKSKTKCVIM
T1 sequence (P01116 1-188 isoform P01116-2 G12V): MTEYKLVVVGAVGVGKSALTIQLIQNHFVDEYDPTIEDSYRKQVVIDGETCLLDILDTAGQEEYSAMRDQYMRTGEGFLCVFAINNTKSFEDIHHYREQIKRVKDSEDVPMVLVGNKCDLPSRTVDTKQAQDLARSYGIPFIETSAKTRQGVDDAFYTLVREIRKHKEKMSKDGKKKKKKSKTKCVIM
T3 sequence (P01116 1-188 isoform P01116-2): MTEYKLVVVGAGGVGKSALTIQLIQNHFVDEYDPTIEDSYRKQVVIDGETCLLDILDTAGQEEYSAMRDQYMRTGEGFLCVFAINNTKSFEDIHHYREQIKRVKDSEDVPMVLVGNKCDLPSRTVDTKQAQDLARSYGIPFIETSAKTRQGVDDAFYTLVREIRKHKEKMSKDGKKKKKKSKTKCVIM
T2 sequence (P01116 1-188 isoform P01116-2 G12D): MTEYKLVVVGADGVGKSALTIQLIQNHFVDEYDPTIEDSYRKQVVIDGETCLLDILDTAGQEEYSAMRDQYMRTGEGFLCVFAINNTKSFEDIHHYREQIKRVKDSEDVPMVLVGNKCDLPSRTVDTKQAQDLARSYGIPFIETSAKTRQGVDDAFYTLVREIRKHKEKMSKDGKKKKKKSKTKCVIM

Row | Compound | IC50 (A549 cells) | IC50 (SW620 cells) | IC50 (K-Ras G12V) | IC50 (K-Ras G12D) | IC50 (K-Ras WT) | IC50 (K-Ras G12S) | IC50 (GP2D cells)
1 | C[C@H]1COc2c(Cl)c(-c3ccc(F)c4sc(N)c(C#N)c34)c(F)c3nc(OC[C@@]45CCCN4C[C@H](F)C5)nc(c23)N1CC1CC1C#N (stereo partly drawn) [Compound 731, 2-amino-4-((5S)-8-chloro-4-((2-cyanocyclopropyl)methyl)-10-fluoro-2-(((2R,7aS)-2-fluorotetrahydro-1H-pyrrolizin-7a(5H)-yl)methoxy)-5-methyl-5,6-dihydro-4H-[1,4]oxazepino[5,6,7-de]quinazolin-9-yl)-7-fluorobenzo[b]thiophene-3-carbonitrile] | – | – | – | – | – | – | < 500 nM
2 | N#Cc1c(N)sc2c(F)ccc(-c3c(Cl)c4c5c(nc(OC[C@@]67CCCN6C[C@H](F)C7)nc5c3F)N(C3CCOC3)[C@@H](C(F)F)CO4)c12 (stereo partly drawn) [Compound 871, 2-amino-4-((5R)-8-chloro-5-(difluoromethyl)-10-fluoro-2-(((2R,7aS)-2-fluorotetrahydro-1H-pyrrolizin-7a(5H)-yl)methoxy)-4-(tetrahydrofuran-3-yl)-5,6-dihydro-4H-[1,4]oxazepino[5,6,7-de]quinazolin-9-yl)-7-fluorobenzo[b]thiophene-3-carbonitrile] | – | – | – | – | – | – | < 500 nM
3 | C[C@H]1COc2c(Cl)c(-c3ccc(F)c4sc(N)c(C#N)c34)c(F)c3nc(OC[C@@]45CCCN4C[C@H](F)C5)nc(c23)N1C1CCOC1 (stereo partly drawn) [Compound 647, 2-amino-4-((5S)-8-chloro-10-fluoro-2-(((2R,7aS)-2-fluorotetrahydro-1H-pyrrolizin-7a(5H)-yl)methoxy)-5-methyl-4-(tetrahydrofuran-3-yl)-5,6-dihydro-4H-[1,4]oxazepino[5,6,7-de]quinazolin-9-yl)-7-fluorobenzo[b]thiophene-3-carbonitrile] | – | – | – | – | – | – | < 500 nM
4 | N#Cc1c(N)sc2c(F)ccc(-c3c(Cl)c4c5c(nc(OC[C@@]67CCCN6C[C@H](F)C7)nc5c3F)N(CC3CC3C#N)[C@@H](C(F)F)CO4)c12 (stereo partly drawn) [Compound 938, 2-amino-4-((5R)-8-chloro-4-((2-cyanocyclopropyl)methyl)-5-(difluoromethyl)-10-fluoro-2-(((2R,7aS)-2-fluorotetrahydro-1H-pyrrolizin-7a(5H)-yl)methoxy)-5,6-dihydro-4H-[1,4]oxazepino[5,6,7-de]quinazolin-9-yl)-7-fluorobenzo[b]thiophene-3-carbonitrile] | – | – | – | – | – | – | < 500 nM
5 | N#Cc1c(N)sc2c(F)ccc(-c3c(Cl)c4c5c(nc(OC[C@@]67CCCN6C[C@H](F)C7)nc5c3F)N(C3CCCCC3O)CCO4)c12 (stereo partly drawn) [Compound 602, 2-amino-4-(8-chloro-10-fluoro-2-(((2R,7aS)-2-fluorotetrahydro-1H-pyrrolizin-7a(5H)-yl)methoxy)-4-(2-hydroxycyclohexyl)-5,6-dihydro-4H-[1,4]oxazepino[5,6,7-de]quinazolin-9-yl)-7-fluorobenzo[b]thiophene-3-carbonitrile] | – | – | – | – | – | – | < 500 nM
6 | N#Cc1c(N)sc2c(F)ccc(-c3c(Cl)c4c5c(nc(OC[C@@]67CCCN6C[C@H](F)C7)nc5c3F)N(CC3CC3C#N)[C@@H](C3(O)CC3)CO4)c12 (single isomer, unassigned) [Compound 942] | – | – | – | – | – | – | < 500 nM
7 | C[C@H](Oc1nc2c3c(c(Cl)c(-c4ccc(F)c5sc(N)c(C#N)c45)c(F)c3n1)OCCN2C1CCN(C(=O)C2CC2C#N)CC1)[C@@H]1CCCN1C (stereo partly drawn) [Compound 839, 2-amino-4-(8-chloro-4-(1-(trans-2-cyanocyclopropane-1-carbonyl)piperidin-4-yl)-10-fluoro-2-((S)-1-((S)-1-methylpyrrolidin-2-yl)ethoxy)-5,6-dihydro-4H-[1,4]oxazepino[5,6,7-de]quinazolin-9-yl)-7-fluorobenzo[b]thiophene-3-carbonitrile] | < 5 µM | < 5 µM | < 100 nM | < 100 nM | < 100 nM | < 100 nM | –
8 | C[C@H](Oc1nc2c3c(c(Cl)c(-c4ccc(F)c5sc(N)c(C#N)c45)c(F)c3n1)OCCN2C1CCCN(C(=O)C2CCC2)C1)[C@@H]1CCCN1C (stereo partly drawn) [Compound 862, 2-amino-4-(8-chloro-4-(1-(cyclobutanecarbonyl)piperidin-3-yl)-10-fluoro-2-((S)-1-((S)-1-methylpyrrolidin-2-yl)ethoxy)-5,6-dihydro-4H-[1,4]oxazepino[5,6,7-de]quinazolin-9-yl)-7-fluorobenzo[b]thiophene-3-carbonitrile] | < 5 µM | < 5 µM | < 100 nM | < 100 nM | < 100 nM | < 100 nM | –
9 | COCC1CN(CC(F)F)c2nc(OC[C@@]34CCCN3C[C@H](F)C4)nc3c(F)c(-c4ccc(F)c5sc(N)c(C#N)c45)c(Cl)c(c23)O1 (stereo partly drawn) [Compound 1030, 2-amino-4-(8-chloro-4-(2,2-difluoroethyl)-10-fluoro-2-(((2R,7aS)-2-fluorotetrahydro-1H-pyrrolizin-7a(5H)-yl)methoxy)-6-(methoxymethyl)-5,6-dihydro-4H-[1,4]oxazepino[5,6,7-de]quinazolin-9-yl)-7-fluorobenzo[b]thiophene-3-carbonitrile] | < 5 µM | < 5 µM | < 100 nM | < 100 nM | < 100 nM | < 100 nM | –

More lines, main results first:

Row | IC50 (A549 cells) | IC50 (SW620 cells) | IC50 (K-Ras G12V) | IC50 (K-Ras G12D) | IC50 (K-Ras WT) | IC50 (K-Ras G12S) | Compound | IC50 (GP2D cells)
10 | < 5 µM | < 5 µM | < 100 nM | < 100 nM | < 100 nM | < 100 nM | CC1CCOc2c(Cl)c(-c3ccc(F)c4sc(N)c(C#N)c34)c(F)c3nc(OC[C@@]45CCCN4C[C@H](F)C5)nc(c23)N1C1CC1 (stereo partly drawn) [Compound 1215, 2-amino-4-(9-chloro-4-cyclopropyl-11-fluoro-2-(((2R,7aS)-2-fluorotetrahydro-1H-pyrrolizin-7a(5H)-yl)methoxy)-5-methyl-4,5,6,7-tetrahydro-[1,5]oxazocino[4,3,2-de]quinazolin-10-yl)-7-fluorobenzo[b]thiophene-3-carbonitrile] | –
11 | < 5 µM | < 5 µM | < 100 nM | < 100 nM | < 100 nM | < 100 nM | CC1Oc2c(Cl)c(-c3ccc(F)c4sc(N)c(C#N)c34)c(F)c3nc(OC[C@@]45CCCN4C[C@H](F)C5)nc(c23)N(C2CC2)C1C (stereo partly drawn) [Compound 929, 2-amino-4-(8-chloro-4-cyclopropyl-10-fluoro-2-(((2R,7aS)-2-fluorotetrahydro-1H-pyrrolizin-7a(5H)-yl)methoxy)-5,6-dimethyl-5,6-dihydro-4H-[1,4]oxazepino[5,6,7-de]quinazolin-9-yl)-7-fluorobenzo[b]thiophene-3-carbonitrile] | –
12 | < 5 µM | < 5 µM | < 100 nM | < 100 nM | < 100 nM | < 100 nM | CNC(=O)C1CC(N2CCOc3c(Cl)c(-c4ccc(F)c5sc(N)c(C#N)c45)c(F)c4nc(OC[C@@]56CCCN5C[C@H](F)C6)nc2c34)CCO1 (stereo partly drawn) [Compound 1094, 4-(9-(2-amino-3-cyano-7-fluorobenzo[b]thiophen-4-yl)-8-chloro-10-fluoro-2-(((2R,7aS)-2-fluorotetrahydro-1H-pyrrolizin-7a(5H)-yl)methoxy)-5,6-dihydro-4H-[1,4]oxazepino[5,6,7-de]quinazolin-4-yl)-N-methyltetrahydro-2H-pyran-2-carboxamide] | –
13 | < 5 µM | < 5 µM | < 100 nM | < 100 nM | < 100 nM | < 100 nM | CC1COc2c(Cl)c(-c3ccc(F)c4sc(N)c(C#N)c34)c(F)c3nc(OC[C@@]45CCCN4C[C@H](F)C5)nc(c23)N(C)[C@@H]1C (stereo partly drawn) [Compound 1206, 2-amino-4-((5R)-9-chloro-11-fluoro-2-(((2R,7aS)-2-fluorotetrahydro-1H-pyrrolizin-7a(5H)-yl)methoxy)-4,5,6-trimethyl-4,5,6,7-tetrahydro-[1,5]oxazocino[4,3,2-de]quinazolin-10-yl)-7-fluorobenzo[b]thiophene-3-carbonitrile] | –
14 | < 5 µM | < 5 µM | < 100 nM | < 100 nM | < 100 nM | < 100 nM | CN(CCN1CCOc2c(Cl)c(-c3ccc(F)c4sc(N)c(C#N)c34)c(F)c3nc(OC[C@@]45CCCN4C[C@H](F)C5)nc1c23)C(=O)C1COC1 [Compound 1058, N-(2-(9-(2-amino-3-cyano-7-fluorobenzo[b]thiophen-4-yl)-8-chloro-10-fluoro-2-(((2R,7aS)-2-fluorotetrahydro-1H-pyrrolizin-7a(5H)-yl)methoxy)-5,6-dihydro-4H-[1,4]oxazepino[5,6,7-de]quinazolin-4-yl)ethyl)-N-methyloxetane-3-carboxamide] | –
